Experimental data published in PMC10689700, “Kaemtakols A–D, highly oxidized pimarane diterpenoids with potent anti-inflammatory activity from Kaempferia takensis” (Natural Products and Bioprospecting, 2023).
pEC50, pIC50: −log10 of the molar value.

Tests used:
NF-κB in HaCaT cells = assay: Inhibition of cytokine-induced NF-κB nuclear translocation in HaCaT human skin cells (high-content imaging); format: cell-based; conditions: cytokine cocktail TNF-α, IL-1β, IL-6, read-out: EC50, HaCaT cell (NF-κB production by cytokine induced inflammation)
Procedure: Assessment of inhibitory effects on NF-κB nuclear translocation in human skin HaCaT cells
The assay followed the methods described previously with some modifications. Human skin cells (HaCaT cells) were seeded at 5 × 10^4 cells/well in a 96-well black flat-bottom plate, using DMEM (Dulbecco’s Modified Eagle Medium) high glucose supplemented with 10% FBS and 1% penicillin–streptomycin. The plates were then incubated at 37 °C for 24 h under 5% CO2 atmosphere. Following the initial incubation, a range of concentrations (100, 50, 25, 12.5, 6.25, 3.125 μM) of kaemtakols were introduced to the cells, and a subsequent 1-h incubation at 37 °C with 5% CO2 was carried out. Afterward, a cytokine cocktail comprising TNF-α (10 ng/mL), IL-1β (10 ng/mL), and IL-6 (10 ng/mL), along with the same concentration range of kaemtakols, was introduced to the culture plates and incubated at 37 °C with 5% CO2 for additional 30 min. Thereafter, the treated cells were fixed with 100% methanol at -20 °C for 10 min. The fixed cells underwent triple washes with DPBS before being exposed to a blocking solution (3% BSA) at room temperature for 60 min. Subsequently, a primary antibody (anti-NF-κB), a Rabbit monoclonal antibody, was introduced into the culture plate at a 1:500 ratio in DPBS and incubated at 4 °C overnight. Afterward, the culture plate was washed with DPBS three times. A secondary antibody (Alexa Fluor 488-conjugated goat anti-rabbit IgG) at a 1:500 ratio in DPBS was added to the culture plate and incubated for 1 h at room temperature in the dark. Simultaneously, Hoechst (at a 1:1,000 ratio in DPBS) was also added to the culture plate. The translocation of NF-κB in cells treated with the cytokine cocktail and kaemtakols was subsequently detected using a high-content imaging system (Operetta). The cell viability was determined by Hoechst DNA staining (Operetta).

[1] = Cytotoxicity against RAW 264.7 cells (MTT assay); format: cell-based, murine; conditions: mouse; for viability at 24 h, 10 µM: at 10 μM, read-out: % Cell viability At 10 μM; for viability at 24 h, 100 µM: at 100 μM, read-out: % Cell viability At 100 μM
Procedure: (§1) The inhibitory assay followed the methods described previously with some modifications. RAW 264.7 cells were seeded at 3 × 10^4 cells/well in a 96-well flat bottom plate and cultured in DMEM high glucose supplemented with 10% FBS, 1% penicillin–streptomycin, and 1% HEPES. The plates were initially incubated at 37 °C for 24 h under 5% CO2 atmosphere. Thereafter, LPS (0.25 μg/mL) in the absence or presence of different concentrations of kaemtakols (100, 10, 1, 0.1, 0.01, and 0.001 μg/mL) were introduced into the culture plate and then incubated further for 24 h under the same condition. Aminoguanidine hydrochloride (iNOS inhibitor) was also added as a positive control. The nitrite accumulation in the media was determined by the Griess reaction. The 75 μL of each culture supernatant was mixed with an equivalent amount of Griess reagent and the resulting mixture was incubated at room temperature for additional 10 min. Then, the absorbance at 546 nm was measured using a multimode microplate reader (ENVISION). The cytotoxicity of kaemtakols against RAW 264.7 was determined by a standard MTT assay.

[2] = system: NO production in RAW 264.7 macrophage cells; assay: Inhibition of LPS-induced NO production in RAW 264.7 macrophage cells (Griess reaction); format: cell-based, murine; conditions: Mus musculus; for pIC50: RAW264.7, LPS-triggered RAW 264.7 macrophage cells, read-out: IC50 of inhibiting nitric oxide production; for pEC50: RAW264.7 cells, LPS 0.25 μg/mL, 24 h, read-out: EC50, Nitric oxide (LPS-induced NO production)
Procedure: as §1, with “Inhibition of NO production in LPS-activated murine macrophages (RAW 264.7 cells) The inhibitory” for “The inhibitory”

| SMILES | pEC50 (NF-κB in HaCaT cells) | viability at 24 h, 10 µM [1] | viability at 24 h, 100 µM [1] | pIC50 [2] | pEC50 [2] |
| --- | --- | --- | --- | --- | --- |
| C=C[C@]1(C)C=C2[C@](O)(CC1)[C@]13CO[C@@]2(O)[C@@H](OC(C)=O)[C@H]1C(C)(C)CC[C@@H]3O [Compound 2, 1α,7α,9α-trihydroxy-6β-acetoxy-7β,20-epoxyisopimara-8(14),15-diene] | < 4.00 | 83% | 20.8% | 6.16 | 6.16 |
| C=CC1(C)C=C2C3(O)OCC4(C(OC(C)=O)CCC(C)(C)C4C3OC(C)=O)C2(O)CC1 (stereo not drawn) [Compound 1, 7α,9α-dihydroxy-1α,6β-diacetoxy-7β,20-epoxyisopimara-8(14),15-diene] | < 4.00 | 95.7% | 68.5% | 3.98 | 3.98 |
| CC(=O)OC1CCC(C)(C)C(C=O)C12COC(=O)C1=C2C2CC3C1C3(C)C2 (stereo not drawn) [Compound 4, 1α-acetoxy-13β-methyl-6,7-seco-7,20-olide-8,9-tricyclo[3.2.1.0^2,7]octane-isopimara-8-en-6-al] | < 4.00 | 89.7% | 1.55% | – | 4.73 |
| C=C[C@]1(C)C=C2[C@@H](OC(C)=O)[C@@]3(O)OC[C@]4([C@@H]3C(C)(C)CC[C@@H]4O)[C@@]2(O)CC1 [Compound 3, 1α,6α,9α-trihydroxy-7β-acetoxy-6β,20-epoxyisopimara-8(14),15-diene] | < 4.00 | 92.5% | 97.2% | – | 4.52 |
